Like-named read-outs stand apart in the source and are kept apart here.
Experiments:
[1] = molecular target: BRM (Homo sapiens, UniProt P51531); experiment: ATPase catalytic activity assay of BRM (ADP-Glo); assay type: biochemical; settings: for IC50: read-out: BRM IC50 (μM)*
Procedure, shortened: (§1)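 Measurement is luminescence, reflecting ADP produced by ATPase turnover. The two-step ADP-Glo detection consists of ATP depletion for 40 min and ADP-to-ATP conversion with luciferase for 60 min, both at room temperature.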

[2] = molecular target: BRG-1 (Homo sapiens, UniProt P51532); experiment: ATPase catalytic activity assay of BRG-1 (ADP-Glo); assay type: biochemical; settings: ATPase catalytic activity, ADP-Glo; for IC50: read-out: BRG1 IC50 (μM)*; for Emax: read-out: BRG1 Max % Inhibition
BRG-1, sequence (P51532 whole entry): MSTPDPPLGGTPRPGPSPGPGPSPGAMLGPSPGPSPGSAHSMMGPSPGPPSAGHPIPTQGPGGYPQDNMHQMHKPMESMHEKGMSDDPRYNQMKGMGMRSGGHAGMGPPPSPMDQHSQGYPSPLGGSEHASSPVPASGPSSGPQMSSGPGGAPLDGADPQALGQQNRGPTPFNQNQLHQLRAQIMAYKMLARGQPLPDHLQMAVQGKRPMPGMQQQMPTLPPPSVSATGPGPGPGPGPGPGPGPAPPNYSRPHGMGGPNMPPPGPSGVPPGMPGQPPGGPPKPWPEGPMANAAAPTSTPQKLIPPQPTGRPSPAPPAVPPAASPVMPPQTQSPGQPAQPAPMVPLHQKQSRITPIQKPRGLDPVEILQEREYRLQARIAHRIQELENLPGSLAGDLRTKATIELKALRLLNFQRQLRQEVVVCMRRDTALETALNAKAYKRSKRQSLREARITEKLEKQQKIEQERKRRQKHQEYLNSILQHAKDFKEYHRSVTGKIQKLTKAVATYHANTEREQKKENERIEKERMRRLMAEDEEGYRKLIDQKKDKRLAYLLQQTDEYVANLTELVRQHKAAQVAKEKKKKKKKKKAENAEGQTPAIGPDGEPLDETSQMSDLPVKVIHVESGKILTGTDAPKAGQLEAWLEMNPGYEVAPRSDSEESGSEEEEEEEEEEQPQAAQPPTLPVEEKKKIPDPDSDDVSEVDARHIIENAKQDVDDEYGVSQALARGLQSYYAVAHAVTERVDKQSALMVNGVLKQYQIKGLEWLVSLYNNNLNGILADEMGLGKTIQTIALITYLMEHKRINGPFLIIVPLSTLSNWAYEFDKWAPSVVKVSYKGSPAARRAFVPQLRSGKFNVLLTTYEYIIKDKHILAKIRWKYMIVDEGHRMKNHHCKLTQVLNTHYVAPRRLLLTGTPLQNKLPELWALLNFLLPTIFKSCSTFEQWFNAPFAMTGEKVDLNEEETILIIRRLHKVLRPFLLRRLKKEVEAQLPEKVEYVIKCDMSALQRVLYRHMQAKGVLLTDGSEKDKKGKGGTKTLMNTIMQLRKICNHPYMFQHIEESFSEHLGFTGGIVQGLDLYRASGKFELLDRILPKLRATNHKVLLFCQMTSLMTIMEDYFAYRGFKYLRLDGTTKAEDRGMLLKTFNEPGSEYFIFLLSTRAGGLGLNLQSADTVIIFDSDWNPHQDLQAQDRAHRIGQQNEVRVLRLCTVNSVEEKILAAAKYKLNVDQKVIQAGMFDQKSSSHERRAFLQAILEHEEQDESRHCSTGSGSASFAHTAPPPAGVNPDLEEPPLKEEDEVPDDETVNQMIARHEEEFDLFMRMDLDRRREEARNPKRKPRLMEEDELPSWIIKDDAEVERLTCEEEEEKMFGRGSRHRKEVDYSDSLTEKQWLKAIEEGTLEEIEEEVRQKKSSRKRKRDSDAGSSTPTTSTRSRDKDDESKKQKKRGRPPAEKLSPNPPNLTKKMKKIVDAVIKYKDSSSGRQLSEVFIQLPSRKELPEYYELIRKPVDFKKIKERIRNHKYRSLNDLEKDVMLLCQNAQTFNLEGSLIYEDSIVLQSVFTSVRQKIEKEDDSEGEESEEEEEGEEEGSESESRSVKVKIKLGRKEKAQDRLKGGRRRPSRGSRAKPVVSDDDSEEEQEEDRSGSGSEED
Procedure, shortened: as §1

BRM, sequence (P51531 whole entry): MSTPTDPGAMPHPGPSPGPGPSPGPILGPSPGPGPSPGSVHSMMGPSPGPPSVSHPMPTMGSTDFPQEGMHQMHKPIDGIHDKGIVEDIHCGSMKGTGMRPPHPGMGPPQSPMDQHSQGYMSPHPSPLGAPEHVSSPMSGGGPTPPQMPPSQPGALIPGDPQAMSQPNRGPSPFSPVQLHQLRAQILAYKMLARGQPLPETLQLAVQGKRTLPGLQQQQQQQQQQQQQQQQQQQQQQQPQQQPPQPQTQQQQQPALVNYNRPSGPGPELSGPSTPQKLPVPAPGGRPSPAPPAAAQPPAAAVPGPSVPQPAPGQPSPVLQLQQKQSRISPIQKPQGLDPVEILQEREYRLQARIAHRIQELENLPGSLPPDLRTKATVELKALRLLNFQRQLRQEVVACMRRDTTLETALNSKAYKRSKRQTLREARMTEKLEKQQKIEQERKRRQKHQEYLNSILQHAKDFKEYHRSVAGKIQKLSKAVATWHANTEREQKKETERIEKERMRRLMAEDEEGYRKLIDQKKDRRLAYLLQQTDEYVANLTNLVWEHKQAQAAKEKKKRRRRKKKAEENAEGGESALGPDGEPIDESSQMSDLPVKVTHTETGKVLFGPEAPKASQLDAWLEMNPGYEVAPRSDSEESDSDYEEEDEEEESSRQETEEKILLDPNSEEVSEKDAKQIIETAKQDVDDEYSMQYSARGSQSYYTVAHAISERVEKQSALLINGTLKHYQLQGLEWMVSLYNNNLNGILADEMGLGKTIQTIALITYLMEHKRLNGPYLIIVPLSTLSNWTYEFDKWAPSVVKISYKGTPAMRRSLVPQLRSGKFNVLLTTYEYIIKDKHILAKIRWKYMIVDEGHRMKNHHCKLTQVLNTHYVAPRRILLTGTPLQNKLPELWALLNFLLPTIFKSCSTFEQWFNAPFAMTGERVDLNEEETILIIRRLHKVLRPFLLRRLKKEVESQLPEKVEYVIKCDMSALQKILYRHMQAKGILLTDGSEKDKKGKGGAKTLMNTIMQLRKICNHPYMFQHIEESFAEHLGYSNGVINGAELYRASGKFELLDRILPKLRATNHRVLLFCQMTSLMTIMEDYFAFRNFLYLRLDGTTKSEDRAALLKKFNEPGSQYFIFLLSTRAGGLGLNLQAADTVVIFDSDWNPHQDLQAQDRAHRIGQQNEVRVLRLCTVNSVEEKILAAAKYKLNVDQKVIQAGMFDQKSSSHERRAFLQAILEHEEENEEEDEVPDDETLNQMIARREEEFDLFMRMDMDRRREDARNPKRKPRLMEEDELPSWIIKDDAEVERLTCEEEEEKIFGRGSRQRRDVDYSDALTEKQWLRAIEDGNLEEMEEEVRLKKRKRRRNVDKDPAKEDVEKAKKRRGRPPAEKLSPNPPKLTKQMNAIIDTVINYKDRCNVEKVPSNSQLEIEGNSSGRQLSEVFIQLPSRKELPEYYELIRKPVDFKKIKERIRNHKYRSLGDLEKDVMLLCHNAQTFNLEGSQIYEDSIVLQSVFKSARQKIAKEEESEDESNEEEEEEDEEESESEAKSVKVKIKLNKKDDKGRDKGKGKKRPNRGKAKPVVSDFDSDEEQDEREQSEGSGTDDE

| Structure (SMILES) | BRM Max % Inhibition [1] | IC50 [1] | IC50 [2] | Emax [2] | BRM Max % Inhibition ([1]; 30 nM BRM, 400 μM ATP) | IC50 ([1]; 30 nM BRM, 400 μM ATP) | IC50 ([2]; 30 nM BRG-1, 400 μM ATP) | Emax ([2]; 30 nM BRG-1, 400 μM ATP) |
| --- | --- | --- | --- | --- | --- | --- | --- | --- |
| CC(C)(CN)c1cccc(C(=O)NCC(=O)Nc2nc(-c3cccc(-c4ccnc(CO)c4)c3)cs2)c1 [Compound 60, 3-(1-amino-2-methylpropan-2-yl)-N-(2-((4-(3-(2-(hydroxymethyl)pyridin-4-yl)phenyl)thiazol-2-yl)amino)-2-oxoethyl)benzamide] | >95% | < 0.1 µM | 0.1 to 1 µM | > 80% | – | – | – | – |
| C[C@@H]1CN(c2cccc(-c3csc(NC(=O)CNC(=O)c4ccc5c(c4)[C@@](C)(C#N)CN5C)n3)c2)C[C@H](C)O1 [Compound 368, (R)-3-cyano-N-(2-((4-(3-((cis)-2,6-dimethylmorpholino)phenyl)thiazol-2-yl)amino)-2-oxoethyl)-1,3-dimethylindoline-5-carboxamide] | >85% | 0.1 to 1 µM | 1 to 5 µM | > 85% | – | – | – | – |
| C[C@@H]1CN(c2cccc(-c3csc(NC(=O)CNC(=O)c4ccc(F)c(C(C)(C)CO)c4)n3)c2)C[C@H](C)O1 [Compound 200, N-(2-((4-(3-((cis)-2,6-dimethylmorpholino)phenyl)thiazol-2-yl)amino)-2-oxoethyl)-4-fluoro-3-(1-hydroxy-2-methylpropan-2-yl)benzamide] | >95% | < 0.1 µM | 0.1 to 1 µM | > 80% | – | – | – | – |
| Cn1ccc2ccc(-c3csc(NC(=O)CNC(=O)c4ccc5c(c4)[C@@](C)(CO)CC5)n3)cc2c1=O [Compound 181, (S)-3-(hydroxymethyl)-3-methyl-N-(2-((4-(2-methyl-1-oxo-1,2-dihydroisoquinolin-7-yl)thiazol-2-yl)amino)-2-oxoethyl)-2,3-dihydro-1H-indene-5-carboxamide] | >90% | 0.1 to 1 µM | 1 to 5 µM | > 70% | – | – | – | – |
| CCS1(=O)=NCc2ccc(C(=O)NCC(=O)Nc3nc(-c4cccc(N5C[C@@H](C)O[C@@H](C)C5)c4)cs3)cc21 (stereo partly drawn) [Compound 367, N-(2-((4-(3-((cis)-2,6-dimethylmorpholino)phenyl)thiazol-2-yl)amino)-2-oxoethyl)-1-ethyl-3H-1I4-benzo[d]isothiazole-6-carboxamide 1-oxide] | >85% | 0.1 to 1 µM | 1 to 5 µM | > 85% | – | – | – | – |
| Cn1ccc2ccc(-c3csc(NC(=O)CNC(=O)c4ccc5c(c4)C4(CCO5)COC4)n3)cc2c1=O [Compound 382, N-(2-((4-(2-methyl-1-oxo-1,2-dihydroisoquinolin-7-yl)thiazol-2-yl)amino)-2-oxoethyl)spiro[chromane-4,3′-oxetane]-6-carboxamide] | >50% | 0.1 to 1 µM | > 5 µM | > 50% | – | – | – | – |
| Cc1cc(-c2cccc(-c3csc(NC(=O)CNC(=O)c4cc(C)c(C)c(C(C)(C)CN)c4)n3)c2)cc(C)n1 [Compound 245, 3-(2-amino-1,1-dimethyl-ethyl)-N-[2-[[4-[3-(2,6-dimethyl-4-pyridyl)phenyl]thiazol-2-yl]amino]-2-oxo-ethyl]-4,5-dimethyl-benzamide] | >95% | < 0.1 µM | 1 to 5 µM | > 70% | – | – | – | – |
| C[C@@H]1CN(c2cccc(-c3csc(NC(=O)CNC(=O)c4cccc(C(C)(C)C)c4)n3)c2)C[C@H](C)O1 [Compound 217, 3-tert-butyl-N-[2-[[4-[3-[(cis)-2,6-dimethylmorpholin-4-yl]phenyl]thiazol-2-yl]amino]-2-oxo-ethyl]benzamide] | >95% | < 0.1 µM | 0.1 to 1 µM | > 90% | – | – | – | – |
| C[C@@H]1CN(c2cccc(-c3csc(NC(=O)CNC(=O)c4cccc([C@]5(F)C[C@@H](F)C5)c4)n3)n2)C[C@H](C)O1 [Compound 357, 3-((1S,3S)-1,3-difluorocyclobutyl)-N-(2-((4-(6-((cis)-2,6-dimethylmorpholino)pyridin-2-yl)thiazol-2-yl)amino)-2-oxoethyl)benzamide] | >90% | 0.1 to 1 µM | 0.1 to 1 µM | > 90% | – | – | – | – |
| CC(C)(CN)c1cccc(C(=O)NCC(=O)Nc2nc(-c3cccc(-c4ccncc4)c3)cs2)c1 [Compound 64, 3-(1-amino-2-methylpropan-2-yl)-N-(2-oxo-2-((4-(3-(pyridin-4-yl)phenyl)thiazol-2-yl)amino)ethyl)benzamide] | >95% | 0.1 to 1 µM | 1 to 5 µM | > 80% | – | – | – | – |
| COc1cccc(-c2csc(NC(=O)CNC(=O)c3ccc4c(c3)C(C)(C#N)CCN4)n2)c1 (stereo not drawn) [Compound 415, 4-cyano-N-(2-((4-(3-methoxyphenyl)thiazol-2-yl)amino)-2-oxoethyl)-4-methyl-1,2,3,4-tetrahydroquinoline-6-carboxamide] | – | – | – | – | >90% | 0.1 to 1 µM | > 5 µM | > 90% |
| C[C@@H]1CN(c2cccc(-c3csc(NC(=O)CNC(=O)c4ccc5c(c4)C4(CCO5)CCO4)n3)n2)C[C@H](C)O1 (stereo partly drawn) [Compound 360] | – | < 0.1 µM | 1 to 5 µM | > 95% | – | – | – | – |
| C[C@@H]1CN(c2cccc(-c3csc(NC(=O)CNC(=O)c4ccc5c(c4)[C@@](C)(CO)CCO5)n3)c2)C[C@H](C)O1 [Compound 166, (S)-N-(2-((4-(3-((cis)-2,6-dimethylmorpholino)phenyl)thiazol-2-yl)amino)-2-oxoethyl)-4-(hydroxymethyl)-4-methylchroman-6-carboxamide] | >95% | 0.1 to 1 µM | > 5 µM | > 50% | – | – | – | – |
| COC[C@H](NC(=O)c1cccc(S(=O)(=O)C(C)C)c1)C(=O)Nc1nc(-c2cccc(-c3ccnc(C)c3)c2)cs1 [Compound 32, (S)-3-(isopropylsulfonyl)-N-(3-methoxy-1-((4-(3-(2-methylpyridin-4-yl)phenyl)thiazol-2-yl)amino)-1-oxopropan-2-yl)benzamide] | >95% | 0.1 to 1 µM | 0.1 to 1 µM | > 80% | – | – | – | – |
| C[C@@H]1CN(c2cccc(-c3csc(NC(=O)CNC(=O)c4ccc5c(c4)C(C)(O)CCO5)n3)c2)C[C@H](C)O1 (stereo partly drawn) [Compound 136, N-[2-[[4-[3-[(cis)-2,6-dimethylmorpholin-4-yl]phenyl]thiazol-2-yl]amino]-2-oxo-ethyl]-4-hydroxy-4-methylchromane-6-carboxamide] | >90% | 0.1 to 1 µM | 1 to 5 µM | > 70% | – | – | – | – |
| Cc1cc(-c2cccc(-c3csc(NC(=O)CNC(=O)c4ccc5c(c4)[C@](C)(CO)CC5)n3)n2)ncn1 [Compound 203, (3R)-3-(hydroxymethyl)-3-methyl-N-[2-[[4-[6-(6-methylpyrimidin-4-yl)-2-pyridyl]thiazol-2-yl]amino]-2-oxo-ethyl]indane-5-carboxamide] | >95% | < 0.1 µM | 0.1 to 1 µM | > 95% | – | – | – | – |
| Cc1nccc(-c2cccc(-c3csc(NC(=O)CNC(=O)c4ccc5c(c4)[C@@](C)(C#N)CC5)n3)n2)n1 [Compound 268, (3S)-3-cyano-3-methyl-N-[2-[[4-[6-(2-methylpyrimidin-4-yl)-2-pyridyl]thiazol-2-yl]amino]-2-oxo-ethyl]indane-5-carboxamide] | >80% | 0.1 to 1 µM | 1 to 5 µM | > 50% | – | – | – | – |
| Cn1ccc2ccc(-c3csc(NC(=O)CNC(=O)c4ccc5c(c4)[C@](C)(F)COC5)n3)cc2c1=O [Compound 389, (S)-4-fluoro-4-methyl-N-(2-((4-(2-methyl-1-oxo-1,2-dihydroisoquinolin-7-yl)thiazol-2-yl)amino)-2-oxoethyl)isochromane-6-carboxamide] | >95% | < 0.1 µM | < 0.1 µM | > 95% | – | – | – | – |
| C[C@@H]1CN(c2cccc(-c3csc(NC(=O)CNC(=O)c4cccc([C@]5(F)C[C@H](F)C5)c4)n3)n2)C[C@H](C)O1 [Compound 358, 3-((1R,3R)-1,3-difluorocyclobutyl)-N-(2-((4-(6-((cis)-2,6-dimethylmorpholino)pyridin-2-yl)thiazol-2-yl)amino)-2-oxoethyl)benzamide] | >95% | < 0.1 µM | 0.1 to 1 µM | > 95% | – | – | – | – |
| Cc1cnc(O)c(-c2cccc(-c3csc(NC(=O)CNC(=O)c4ccc5c(c4)[C@](C)(CO)CC5)n3)n2)c1 [Compound 263, (R)-N-(2-((4-(2′-hydroxy-5′-methyl-[2,3′-bipyridin]-6-yl)thiazol-2-yl)amino)-2-oxoethyl)-3-(hydroxymethyl)-3-methyl-2,3-dihydro-1H-indene-5-carboxamide] | >80% | 0.1 to 1 µM | 1 to 5 µM | > 40% | – | – | – | – |
| C[C@@H]1CN(c2cccc(-c3csc(NC(=O)CNC(=O)c4ccc5c(c4)CCCOC5)n3)n2)C[C@H](C)O1 [Compound 296, N-(2-((4-(6-((cis)-2,6-dimethylmorpholino)pyridin-2-yl)thiazol-2-yl)amino)-2-oxoethyl)-1,3,4,5-tetrahydrobenzo[c]oxepine-7-carboxamide] | >95% | < 0.1 µM | < 0.1 µM | > 95% | – | – | – | – |
| COc1cccc(-c2csc(NC(=O)CNC(=O)c3ccc4c(c3)C(C)(O)COC4)n2)c1 (stereo not drawn) [Compound 313, 4-hydroxy-N-(2-((4-(3-methoxyphenyl)thiazol-2-yl)amino)-2-oxoethyl)-4-methylisochromane-6-carboxamide] | >90% | 0.1 to 1 µM | 1 to 5 µM | > 90% | – | – | – | – |
